Source: ChEMBL document CHEMBL1129577, “Identification of a novel oxazolidinone (U-100480) with potent antimycobacterial activity” (1996)

Experiments:
[1] = system: Mycobacterium tuberculosis; test: In vitro anti-mycobacterial activity against multiple resistant strains of Mycobacterium tuberculosis at 0.50 ug/mL; type: functional
[2] = system: Mycobacterium tuberculosis; test: In vitro anti-mycobacterial activity against multiple resistant strains of Mycobacterium tuberculosis at 0.125 ug/mL; type: functional

Row | SMILES | No. of strains [1] | No. of strains [2]
1 | CC(=O)NC[C@H]1CN(c2ccc(N3CCS(=O)(=O)CC3)c(F)c2)C(=O)O1 | 4 | 
2 | CC(=O)NC[C@H]1CN(c2ccc(N3CCSCC3)c(F)c2)C(=O)O1 [SUTEZOLID] | 2 | 3
